compound: NC(=O)CCCCC1CCSS1 [lipoamide]; test: thermal stability z-score vs DMSO; higher = more thermally stabilized by treatment; settings: HeLa; lipoamide concentration 100 µM; arsenate co-treatment: 1 mM arsenate 1 h
Protocol: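 Cellular thermal proteome profiling in HeLa cells. Cells were treated with 100 µM lipoamide for 1 h, with or without 1 mM arsenate for a further 1 h, then heated to ten temperatures (37-66.3 °C), and soluble protein was quantified by TMT mass spectrometry relative to 0.1% DMSO controls. The thermal stability score (sum of log2 fold changes minus the abundance score) was transformed to a z-score; mean of n = 3 experiments.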
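Also: each temperature applied for 3 min, abundance score taken as mean log2 fold change at the two lowest temperatures, z-score obtained by mean subtraction and division by SD.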

Sequence of UniProt Q15910 (Q15910 whole entry, looked up): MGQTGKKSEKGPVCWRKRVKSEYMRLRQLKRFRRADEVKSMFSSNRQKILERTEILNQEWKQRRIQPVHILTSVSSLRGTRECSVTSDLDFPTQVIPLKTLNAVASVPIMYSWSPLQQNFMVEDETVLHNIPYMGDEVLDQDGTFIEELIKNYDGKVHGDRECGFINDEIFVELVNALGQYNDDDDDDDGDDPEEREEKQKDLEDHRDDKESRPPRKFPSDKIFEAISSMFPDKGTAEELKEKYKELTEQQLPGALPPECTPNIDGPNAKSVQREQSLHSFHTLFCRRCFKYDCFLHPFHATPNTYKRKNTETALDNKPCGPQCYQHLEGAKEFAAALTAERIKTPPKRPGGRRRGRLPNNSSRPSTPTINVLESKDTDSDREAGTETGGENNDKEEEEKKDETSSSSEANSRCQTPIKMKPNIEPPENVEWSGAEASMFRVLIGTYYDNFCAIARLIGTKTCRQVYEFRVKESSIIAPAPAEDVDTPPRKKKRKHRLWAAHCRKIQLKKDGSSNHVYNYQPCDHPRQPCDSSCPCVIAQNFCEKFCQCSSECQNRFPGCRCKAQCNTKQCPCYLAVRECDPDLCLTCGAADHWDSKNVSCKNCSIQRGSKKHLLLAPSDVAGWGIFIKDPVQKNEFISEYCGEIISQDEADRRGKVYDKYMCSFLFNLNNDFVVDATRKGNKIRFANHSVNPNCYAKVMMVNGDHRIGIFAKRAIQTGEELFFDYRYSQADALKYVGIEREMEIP
Sequence of UniProt P51580 (P51580 whole entry): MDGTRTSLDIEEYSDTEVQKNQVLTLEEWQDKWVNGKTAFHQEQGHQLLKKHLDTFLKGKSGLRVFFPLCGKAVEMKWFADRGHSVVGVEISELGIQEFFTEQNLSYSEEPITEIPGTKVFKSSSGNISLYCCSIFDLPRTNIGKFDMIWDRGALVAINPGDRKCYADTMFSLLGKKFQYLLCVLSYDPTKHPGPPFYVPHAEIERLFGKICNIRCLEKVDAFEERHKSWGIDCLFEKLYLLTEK
Sequence of UniProt O95427 (O95427 whole entry): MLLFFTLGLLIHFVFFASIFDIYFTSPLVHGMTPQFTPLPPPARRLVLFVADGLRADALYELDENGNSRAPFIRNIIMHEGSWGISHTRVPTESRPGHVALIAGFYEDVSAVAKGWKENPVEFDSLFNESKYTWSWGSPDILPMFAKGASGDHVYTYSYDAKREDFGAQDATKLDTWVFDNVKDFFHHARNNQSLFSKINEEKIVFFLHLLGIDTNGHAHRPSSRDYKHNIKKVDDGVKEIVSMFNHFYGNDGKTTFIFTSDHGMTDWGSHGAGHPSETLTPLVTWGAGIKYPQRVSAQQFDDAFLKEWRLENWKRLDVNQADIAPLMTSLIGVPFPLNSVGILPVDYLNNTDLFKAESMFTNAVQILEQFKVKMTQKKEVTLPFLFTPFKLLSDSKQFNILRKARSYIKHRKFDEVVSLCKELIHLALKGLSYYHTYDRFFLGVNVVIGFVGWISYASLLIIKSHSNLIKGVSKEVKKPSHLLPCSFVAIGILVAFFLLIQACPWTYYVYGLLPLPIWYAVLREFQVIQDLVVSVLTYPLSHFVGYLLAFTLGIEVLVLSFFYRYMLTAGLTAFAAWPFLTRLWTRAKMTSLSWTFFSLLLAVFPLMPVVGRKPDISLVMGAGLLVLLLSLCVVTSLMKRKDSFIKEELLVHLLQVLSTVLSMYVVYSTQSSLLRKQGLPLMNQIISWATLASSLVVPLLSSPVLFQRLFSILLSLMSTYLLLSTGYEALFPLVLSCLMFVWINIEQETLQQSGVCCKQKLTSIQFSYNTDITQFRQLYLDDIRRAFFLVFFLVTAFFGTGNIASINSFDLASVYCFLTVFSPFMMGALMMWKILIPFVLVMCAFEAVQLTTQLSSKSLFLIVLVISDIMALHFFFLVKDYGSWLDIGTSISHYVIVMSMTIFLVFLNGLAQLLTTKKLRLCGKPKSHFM
Sequence of UniProt P33991 (P33991 whole entry): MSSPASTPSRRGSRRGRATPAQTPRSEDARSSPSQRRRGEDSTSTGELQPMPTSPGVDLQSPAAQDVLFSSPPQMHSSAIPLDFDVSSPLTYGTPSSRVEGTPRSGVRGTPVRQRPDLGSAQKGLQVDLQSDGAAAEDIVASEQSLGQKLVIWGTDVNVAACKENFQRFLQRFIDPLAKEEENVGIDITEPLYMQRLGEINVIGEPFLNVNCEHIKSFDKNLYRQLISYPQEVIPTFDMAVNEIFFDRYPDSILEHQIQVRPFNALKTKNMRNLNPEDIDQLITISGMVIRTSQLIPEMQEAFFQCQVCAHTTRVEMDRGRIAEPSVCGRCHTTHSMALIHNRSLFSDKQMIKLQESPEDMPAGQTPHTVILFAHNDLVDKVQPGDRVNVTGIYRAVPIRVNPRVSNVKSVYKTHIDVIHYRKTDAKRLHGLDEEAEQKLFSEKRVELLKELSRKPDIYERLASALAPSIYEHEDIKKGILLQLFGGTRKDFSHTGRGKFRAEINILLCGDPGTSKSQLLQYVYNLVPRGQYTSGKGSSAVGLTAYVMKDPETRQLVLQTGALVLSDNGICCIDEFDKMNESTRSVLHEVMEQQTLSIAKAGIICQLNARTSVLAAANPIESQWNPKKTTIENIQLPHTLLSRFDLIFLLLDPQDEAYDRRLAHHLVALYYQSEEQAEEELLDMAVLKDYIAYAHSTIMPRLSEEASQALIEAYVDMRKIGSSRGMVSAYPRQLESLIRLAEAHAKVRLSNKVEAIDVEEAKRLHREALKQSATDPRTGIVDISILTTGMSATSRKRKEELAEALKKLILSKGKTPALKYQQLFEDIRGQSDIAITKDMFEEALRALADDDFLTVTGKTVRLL
Sequence of UniProt P20645 (P20645 whole entry): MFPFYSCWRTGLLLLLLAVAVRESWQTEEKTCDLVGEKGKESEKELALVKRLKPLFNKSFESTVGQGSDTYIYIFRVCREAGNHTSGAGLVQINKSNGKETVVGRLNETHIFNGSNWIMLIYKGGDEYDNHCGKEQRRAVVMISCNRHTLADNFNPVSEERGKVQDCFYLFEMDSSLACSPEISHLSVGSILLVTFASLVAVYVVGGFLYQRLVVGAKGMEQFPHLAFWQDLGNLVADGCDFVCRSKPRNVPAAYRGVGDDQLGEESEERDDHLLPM
Sequence of UniProt Q9Y2Q3 (Q9Y2Q3 whole entry): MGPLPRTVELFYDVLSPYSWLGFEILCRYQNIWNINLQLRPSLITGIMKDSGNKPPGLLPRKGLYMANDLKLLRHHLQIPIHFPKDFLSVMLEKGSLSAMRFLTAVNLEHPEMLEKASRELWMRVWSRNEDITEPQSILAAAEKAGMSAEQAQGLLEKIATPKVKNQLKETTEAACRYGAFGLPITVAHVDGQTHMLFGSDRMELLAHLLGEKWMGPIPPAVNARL
Sequence of UniProt P19338 (P19338 whole entry): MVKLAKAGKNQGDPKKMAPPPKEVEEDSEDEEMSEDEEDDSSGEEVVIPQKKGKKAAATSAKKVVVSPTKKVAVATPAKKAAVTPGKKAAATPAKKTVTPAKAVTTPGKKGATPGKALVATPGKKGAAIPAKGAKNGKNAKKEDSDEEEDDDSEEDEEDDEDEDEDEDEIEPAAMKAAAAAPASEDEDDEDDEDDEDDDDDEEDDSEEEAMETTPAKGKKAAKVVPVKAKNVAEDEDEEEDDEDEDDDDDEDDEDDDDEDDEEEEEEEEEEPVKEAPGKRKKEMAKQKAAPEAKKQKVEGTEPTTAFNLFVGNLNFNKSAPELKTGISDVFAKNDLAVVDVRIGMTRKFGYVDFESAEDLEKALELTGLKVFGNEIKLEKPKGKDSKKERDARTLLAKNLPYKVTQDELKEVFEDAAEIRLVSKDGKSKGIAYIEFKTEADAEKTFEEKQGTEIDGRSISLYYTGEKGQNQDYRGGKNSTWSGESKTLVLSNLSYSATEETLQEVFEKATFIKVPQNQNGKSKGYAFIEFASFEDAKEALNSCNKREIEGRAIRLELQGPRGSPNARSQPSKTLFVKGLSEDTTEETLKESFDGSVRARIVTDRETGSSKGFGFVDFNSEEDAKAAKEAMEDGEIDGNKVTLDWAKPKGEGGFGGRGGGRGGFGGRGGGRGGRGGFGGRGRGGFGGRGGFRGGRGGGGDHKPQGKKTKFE
Sequence of UniProt P56589 (P56589 whole entry): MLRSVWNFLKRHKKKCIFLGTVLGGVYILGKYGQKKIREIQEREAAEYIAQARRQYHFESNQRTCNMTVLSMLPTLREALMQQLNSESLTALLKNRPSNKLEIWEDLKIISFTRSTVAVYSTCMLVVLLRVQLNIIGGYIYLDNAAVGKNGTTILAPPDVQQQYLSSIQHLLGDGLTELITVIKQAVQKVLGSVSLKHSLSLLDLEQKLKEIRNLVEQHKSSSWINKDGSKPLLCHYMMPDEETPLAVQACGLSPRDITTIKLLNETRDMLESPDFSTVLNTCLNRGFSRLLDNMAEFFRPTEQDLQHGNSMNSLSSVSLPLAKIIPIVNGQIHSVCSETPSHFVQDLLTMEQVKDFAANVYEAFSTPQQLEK
Sequence of UniProt Q9Y6E0 (Q9Y6E0 whole entry, looked up): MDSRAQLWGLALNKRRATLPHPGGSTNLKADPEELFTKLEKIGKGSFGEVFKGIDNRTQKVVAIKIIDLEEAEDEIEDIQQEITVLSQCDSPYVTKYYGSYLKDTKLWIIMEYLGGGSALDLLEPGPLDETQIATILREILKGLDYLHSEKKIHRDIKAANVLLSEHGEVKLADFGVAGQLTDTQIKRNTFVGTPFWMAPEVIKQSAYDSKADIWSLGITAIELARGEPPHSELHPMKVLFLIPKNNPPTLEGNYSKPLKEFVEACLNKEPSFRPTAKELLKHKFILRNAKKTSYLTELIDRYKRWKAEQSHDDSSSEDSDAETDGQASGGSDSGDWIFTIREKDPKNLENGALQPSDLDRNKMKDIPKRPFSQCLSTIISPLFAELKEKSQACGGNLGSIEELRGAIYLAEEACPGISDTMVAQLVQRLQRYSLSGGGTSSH
Sequence of UniProt Q9NX24 (Q9NX24 whole entry): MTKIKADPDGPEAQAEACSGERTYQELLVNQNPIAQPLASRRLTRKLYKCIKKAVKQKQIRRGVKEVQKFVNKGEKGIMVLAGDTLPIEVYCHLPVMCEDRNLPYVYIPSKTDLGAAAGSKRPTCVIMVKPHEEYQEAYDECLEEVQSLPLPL

Point of comparison: BOD1L1 (UniProt Q8NFC6), thermal stability z-score 0.583. Against it:
- JPH1 (UniProt Q9HDC5) — lower, 0.0376
- CKMT1A (UniProt P12532) — higher, 0.957
- STK24 (UniProt Q9Y6E0) — lower, 0.0491
- SPHK1 (UniProt Q9NYA1) — lower, 0.328
- PEX3 (UniProt P56589) — lower, -0.415
- NHP2 (UniProt Q9NX24) — lower, -0.434
- MCM4 (UniProt P33991) — lower, -0.472
- DNAJC12 (UniProt Q9UKB3) — lower, -0.279
- TBC1D17 (UniProt Q9HA65) — lower, -0.114
- LATS1 (UniProt O95835) — lower, -0.183
- TPMT (UniProt P51580) — lower, 0.308
- RAP1GDS1 (UniProt P52306) — lower, 0.161
- EZH2 (UniProt Q15910) — lower, -0.0218
- ZMAT2 (UniProt Q96NC0) — lower, -0.00196
- PAPSS1 (UniProt O43252) — lower, -0.0513
- LPCAT2 (UniProt Q7L5N7) — lower, -0.337
- M6PR (UniProt P20645) — lower, 0.401
- MYCBP2 (UniProt O75592) — lower, -0.0354
- TNFAIP2 (UniProt Q03169) — lower, 0.331
- AGL (UniProt P35573) — lower, 0.414
- NAA10 (UniProt P41227) — higher, 1.16
- MRPS7 (UniProt Q9Y2R9) — lower, -1.12
- CHMP1A (UniProt Q9HD42) — lower, 0.125
- PTRF (UniProt Q6NZI2) — lower, 0.213
- CHCHD6 (UniProt Q9BRQ6) — lower, 0.209
- GSTK1 (UniProt Q9Y2Q3) — lower, -0.0293
- PIGN (UniProt O95427) — lower, 0.0724
- SNX27 (UniProt Q96L92) — lower, -0.141
- NCL (UniProt P19338) — higher, 0.724

same assay, conditions: HeLa; lipoamide concentration 100 µM; arsenate co-treatment: none

Point of comparison: SNX27 (UniProt Q96L92), thermal stability z-score 0.167. Against it:
- JPH1 (UniProt Q9HDC5) — lower, 0.0934
- CKMT1A (UniProt P12532) — higher, 0.965
- STK24 (UniProt Q9Y6E0) — lower, -0.118
- SPHK1 (UniProt Q9NYA1) — lower, 0.0728
- PEX3 (UniProt P56589) — lower, -0.151
- NHP2 (UniProt Q9NX24) — lower, -0.739
- MCM4 (UniProt P33991) — lower, -0.0478
- DNAJC12 (UniProt Q9UKB3) — lower, -0.182
- TBC1D17 (UniProt Q9HA65) — lower, -0.107
- LATS1 (UniProt O95835) — lower, -0.189
- TPMT (UniProt P51580) — higher, 0.31
- RAP1GDS1 (UniProt P52306) — lower, -0.118
- BOD1L1 (UniProt Q8NFC6) — higher, 0.352
- EZH2 (UniProt Q15910) — lower, -0.132
- ZMAT2 (UniProt Q96NC0) — lower, -0.398
- PAPSS1 (UniProt O43252) — lower, -0.0832
- LPCAT2 (UniProt Q7L5N7) — higher, 0.245
- M6PR (UniProt P20645) — lower, -0.0131
- MYCBP2 (UniProt O75592) — higher, 0.179
- TNFAIP2 (UniProt Q03169) — higher, 0.638
- AGL (UniProt P35573) — higher, 0.398
- NAA10 (UniProt P41227) — higher, 0.982
- MRPS7 (UniProt Q9Y2R9) — lower, -0.496
- CHMP1A (UniProt Q9HD42) — higher, 0.254
- PTRF (UniProt Q6NZI2) — lower, 0.0879
- CHCHD6 (UniProt Q9BRQ6) — higher, 0.536
- GSTK1 (UniProt Q9Y2Q3) — higher, 0.351
- PIGN (UniProt O95427) — lower, -0.0621
- NCL (UniProt P19338) — higher, 0.77

compound: O=[As]([O-])(O)O.[K+] [potassium arsenate]; test: as above; settings: HeLa; arsenate concentration 1 mM
Protocol: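 Cellular thermal proteome profiling in HeLa cells treated with 1 mM arsenate for 1 h (DMSO pretreatment), heated to ten temperatures (37-66.3 °C). Soluble protein was quantified by TMT mass spectrometry relative to DMSO controls; the thermal stability score was transformed to a z-score; mean of n = 3 experiments.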

Point of comparison: PTRF (UniProt Q6NZI2), thermal stability z-score 0.778. Against it:
- JPH1 (UniProt Q9HDC5) — lower, -0.105
- CKMT1A (UniProt P12532) — higher, 0.795
- STK24 (UniProt Q9Y6E0) — lower, 0.0137
- SPHK1 (UniProt Q9NYA1) — lower, -0.0222
- PEX3 (UniProt P56589) — lower, -0.285
- NHP2 (UniProt Q9NX24) — lower, -0.721
- MCM4 (UniProt P33991) — lower, -0.472
- DNAJC12 (UniProt Q9UKB3) — lower, -0.108
- TBC1D17 (UniProt Q9HA65) — lower, -0.0293
- LATS1 (UniProt O95835) — lower, -0.0262
- TPMT (UniProt P51580) — lower, -0.162
- RAP1GDS1 (UniProt P52306) — lower, 0.353
- BOD1L1 (UniProt Q8NFC6) — lower, -0.589
- EZH2 (UniProt Q15910) — lower, -0.158
- ZMAT2 (UniProt Q96NC0) — lower, -1.13
- PAPSS1 (UniProt O43252) — lower, 0.0908
- LPCAT2 (UniProt Q7L5N7) — higher, 0.944
- M6PR (UniProt P20645) — lower, 0.167
- MYCBP2 (UniProt O75592) — lower, -0.207
- TNFAIP2 (UniProt Q03169) — higher, 0.97
- AGL (UniProt P35573) — lower, 0.0621
- NAA10 (UniProt P41227) — lower, 0.405
- MRPS7 (UniProt Q9Y2R9) — lower, 0.102
- CHMP1A (UniProt Q9HD42) — lower, 0.38
- CHCHD6 (UniProt Q9BRQ6) — lower, -0.66
- GSTK1 (UniProt Q9Y2Q3) — lower, -0.0332
- PIGN (UniProt O95427) — lower, 0.41
- SNX27 (UniProt Q96L92) — lower, 0.511
- NCL (UniProt P19338) — lower, -0.611

Source: the supplement of paper PMC12463676, “Small-molecule dissolution of stress granules by redox modulation benefits ALS models” (Nature Chemical Biology, 2025)
